Marks after values point to notes of the source that are not given here. Bridge positions count the residues as written; N and C are the ends. Square brackets hold non-standard residues; d marks the D form. Ends that are not written are not given here. Peptide text beside a SMILES is read from it. d(pGlu) = O=C1CC[C@H](C(=O)O)N1
Key:
[1] = system: cAMP activation in mouse adult neural stem cells; assay: cAMP detection (HitHunter EFC Cyclic AMP Chemiluminescence Assay); details: for Fold Induction cAMP: vs vehicle
Adult neural stem cells = assay: Flow cytometry for early neuronal marker Doublecortin; details: for % Doublecortin-positive cells / Fold Induction (Doublecortin-positive cells): Table 6; for % Doublecortin-positive cells: 4 days; for Fold Induction (Doublecortin-positive cells): vs EGF/FGF
[2] = system: mouse adult neural stem cells; assay: ATP-assay: proliferation (ATP levels) of neurosphere-derived cells; details: for Fold Induction ATP: vs vehicle
[3] = Table 2, 1 nM (cAMP concentration)
[4] = Table 2, 10 nM (cAMP concentration)
[5] = Table 2, 100 nM (cAMP concentration)

Compound | cAMP (pmol/well) [1, 3] [pmol/well] | % Doublecortin-positive cells (Adult neural stem cells; 100 nM) [%] | ATP (nM ATP/well) ([2]; Table 2, 100 nM, 4 days) | cAMP (pmol/well) [1, 4] [pmol/well] | Fold Induction (Doublecortin-positive cells) (Adult neural stem cells; 100 nM) [fold] | Fold Induction ATP ([2]; Table 2, 100 nM, 4 days) | also measured
CC(C)C[C@H](NC(=O)[C@@H](Cc1c[nH]c2ccccc12)NC(=O)[C@H](Cc1ccc(O)cc1)NC(=O)[C@H](CO)NC(=O)[C@@H](Cc1c[nH]c2ccccc12)NC(=O)[C@@H](Cc1ccccc1)NC(=O)[C@H]1CCC(=O)N1)C(=O)N[C@@H](CCCNC(=N)N)C(=O)N1CCC[C@H]1C(=O)NCC(N)=O [[D-pGlu1,D-Phe2, D-Trp3,6]-LH-RH] ([d(pGlu)][dF][dW]SY[dW]LRPG-NH2; C-terminus assumed) | 0.07 ± 0.02 | 3.4 | 11.1 ± 0.4 | – | – | – | –
KYGQVPMCDAGEQCAVRKGARIGKLCDCPRGTSCNSFLLKCL (disulfide 8-26, 14-34, 28-41) [CART (61-102)] | – | 4.7 | 8.3 ± 0.4 | 0.13 ± 0.02 | 1.8 | 1.2** fold | Fold Induction cAMP ([1]; Table 2, 10 nM): 1.2* (10 nM) fold
CSCC[C@H](NC(=O)[C@H](CCCNC(=N)N)NC(=O)[C@H](Cc1ccc(O)cc1)NC(=O)[C@@H]1CCCN1C(=O)CNC(=O)[C@H](CCC(=O)O)NC(=O)[C@H](CC(=O)O)NC(=O)[C@H](CCCCN)NC(=O)[C@H](CCCCN)NC(=O)[C@H](CCC(=O)O)NC(=O)[C@H](C)N)C(=O)N[C@@H](CCC(=O)O)C(=O)N[C@@H](Cc1c[nH]cn1)C(=O)N[C@@H](Cc1ccccc1)C(=O)N[C@@H](CCCNC(=N)N)C(=O)N[C@@H](Cc1c[nH]c2ccccc12)C(=O)NCC(=O)N[C@@H](CO)C(=O)N1CCC[C@H]1C(=O)N1CCC[C@H]1C(=O)N[C@@H](CCCCN)C(=O)N[C@@H](CC(=O)O)C(=O)O [β-MSH, β-Melanocyte Stimulating Hormone] | – | 4.1 | 13.6 ± 1.6 | 0.23 ± 0.02 | – | – | –
CNC(=O)[C@H]1O[C@@H](n2cnc3c(N)ncnc32)[C@H](O)[C@@H]1O [MECA] | – | – | 7.4 ± 0.7 | – | – | 1.6** fold | cAMP (pmol/well) [1, 5]: 3.89 ± 1.00 pmol/well; Fold Induction cAMP ([1]; Table 2, 100 nM): 2.1* fold; % Doublecortin-positive cells (Adult neural stem cells; 10 μM): 2.2%; Fold Induction (Doublecortin-positive cells) (Adult neural stem cells; 10 μM): 0.9 fold
CC(C)C[C@H](NC(=O)[C@H](CCCCN)NC(=O)CNC(=O)[C@H](CC(C)C)NC(=O)[C@@H](NC(=O)[C@@H]1CSSC[C@H](N)C(=O)N[C@@H](CO)C(=O)N[C@@H](CC(N)=O)C(=O)N[C@@H](CC(C)C)C(=O)N[C@@H](CO)C(=O)N[C@@H]([C@@H](C)O)C(=O)N1)C(C)C)C(=O)N[C@@H](CO)C(=O)N[C@@H](CCC(N)=O)C(=O)N[C@@H](CCC(=O)O)C(=O)N[C@@H](CC(C)C)C(=O)N[C@@H](Cc1c[nH]cn1)C(=O)N[C@@H](CCCCN)C(=O)N[C@@H](CC(C)C)C(=O)N[C@@H](CCC(N)=O)C(=O)N[C@H](C(=O)N[C@@H](Cc1ccc(O)cc1)C(=O)N1CCC[C@H]1C(=O)N[C@@H](CCCNC(=N)N)C(=O)N[C@H](C(=O)N[C@@H](CC(N)=O)C(=O)N[C@H](C(=O)NCC(=O)N[C@@H](CO)C(=O)NCC(=O)N[C@H](C(=O)N1CCC[C@H]1C(N)=O)[C@@H](C)O)[C@@H](C)O)[C@@H](C)O)[C@@H](C)O [Thyrocalcitonin (Salmon)] | 0.63 ± 0.23 | 3.9 | – | – | 1.5 | – | Fold Induction cAMP ([1]; Table 2, 1 nM): 3.8* (1 nM) fold; ATP (nM ATP/well) ([2]; Table 2, 1 nM, 4 days): 9.2 ± 0.7 nM ATP/well; Fold Induction ATP ([2]; Table 2, 1 nM, 4 days): 1.3* fold
CSCC[C@H](NC(=O)[C@H](Cc1ccc(O)cc1)NC(=O)[C@@H](N)CC(=O)O)C(=O)NCC(=O)N[C@@H](Cc1c[nH]c2ccccc12)C(=O)N[C@@H](CCSC)C(=O)N[C@@H](CC(=O)O)C(=O)N[C@@H](Cc1ccccc1)C(N)=O [Cholecystokinin Octapeptide [CCK(26-33)]] | – | 3.2 | – | – | – | – | cAMP (pmol/well) [1, 5]: 0.27 ± 0.06 pmol/well; ATP (nM ATP/well) ([2]; Table 2, 10 nM, 4 days): 9.8 ± 0.4 nM ATP/well
CC(C)C[C@H](NC(=O)[C@H](Cc1ccccc1)NC(=O)CNC(=O)CNC(=O)[C@@H](N)Cc1ccc(O)cc1)C(=O)N[C@@H](CCCNC(=N)N)C(=O)N[C@@H](CCCCN)C(=O)N[C@@H](Cc1ccc(O)cc1)C(=O)N1CCC[C@H]1C(=O)N[C@@H](CCCCN)C(=O)O [α-Neo-Endorphin] (H-YGGFLRKYPK-OH; N-terminus and C-terminus assumed) | 0.36 ± 0.09 | 4.0 | 13.8 ± 2.1 | – | 1.6 | 1.8** fold | Fold Induction cAMP ([1]; Table 2, 1 nM): 1.7* (1 nM) fold
CSCC[C@@H]1NC(=O)[C@H](C)NC(=O)[C@H]([C@@H](C)O)NC(=O)CNC(=O)[C@H](CC(C)C)NC(=O)[C@H](CCCCN)NC(=O)[C@H](CCCNC(=N)N)NC(=O)[C@@H]2CSSC[C@@H]3NC(=O)[C@@H]4CCCN4C(=O)[C@H](C(C)C)NC(=O)[C@H](CCC(N)=O)NC(=O)[C@H](CCC(N)=O)NC(=O)CNC(=O)[C@H](CC(C)C)NC(=O)[C@@H]4CSSC[C@H](NC(=O)[C@H]([C@@H](C)O)NC(=O)[C@H](C)NC(=O)[C@H](CSSC[C@@H](C(=O)N[C@@H](CO)C(=O)N[C@@H](CCCNC(=N)N)C(=O)N[C@H](C(N)=O)[C@@H](C)O)NC(=O)[C@@H]5CCCN5C(=O)[C@H](CC(N)=O)NC1=O)NC(=O)[C@@H]1CCCN1C(=O)[C@H](CC(=O)O)NC(=O)[C@H](CSSC[C@H](N)C(=O)N[C@@H](C(C)C)C(=O)N[C@@H](CCCNC(=N)N)C(=O)N[C@@H](CC(C)C)C(=O)N[C@@H](Cc1c[nH]cn1)C(=O)N[C@@H](CCC(=O)O)C(=O)N[C@@H](CO)C(=O)N4)NC3=O)C(=O)N[C@@H](Cc1ccc(O)cc1)C(=O)N[C@H]1CSSC[C@H](NC(=O)[C@H](Cc3ccccc3)NC(=O)[C@H](C)NC(=O)[C@H](CC(N)=O)NC(=O)[C@H](Cc3ccccc3)NC(=O)[C@H](Cc3ccccc3)NC(=O)[C@H](CCCNC(=N)N)NC1=O)C(=O)N[C@@H](Cc1ccc(O)cc1)C(=O)N2 [Agouti Related Protein (87-132)-Amide (Human)] | – | 2.4 | – | 0.5 ± 0.20 | 0.9 | – | Fold Induction cAMP ([1]; Table 2, 10 nM): 2.4* fold; ATP (nM ATP/well) ([2]; Table 2, 10 nM, 4 days): 11.2 ± 1.7 nM ATP/well; Fold Induction ATP ([2]; Table 2, 10 nM, 4 days): 1.4* fold
C=C[C@@]1(C)CC(=O)[C@]2(O)[C@@]3(C)[C@@H](O)CCC(C)(C)[C@@H]3[C@H](O)[C@H](OC(C)=O)[C@@]2(C)O1 [Forskolin, forskolin] | – | – | – | – | – | – | fold induction at 1 µM ([1]; Mus musculus, Neural stem cell, 0.25 h, read-out: Fold Induction cAMP): 3.1; cAMP (pmol/well) ([1]; Table 1, 1000 nM, after 15 minutes): 0.07 ± 0.01 pmol/well; fold induction at 10 µM (Adult neural stem cells; Mus musculus, Neural stem cell, read-out: Fold Induction (Doublecortin-positive cells)): 2.5; % Doublecortin-positive cells (Adult neural stem cells; 10 μM): 6.3%; fold induction at 1 µM ([2]; Mus musculus, Neural stem cell, 96 h, read-out: Fold Induction ATP): 1.1; ATP (nM ATP/well) ([2]; Table 1, 1000 nM, 4 days in culture): 10.4 ± 2.4 nM ATP/well
CSCC[C@H](NC(=O)[C@H](CC(C)C)NC(=O)CNC(=O)[C@@H](NC(=O)[C@H](Cc1ccccc1)NC(=O)[C@H](CO)NC(=O)[C@H](CC(=O)O)NC(=O)[C@@H](NC(=O)[C@H](CCCCN)NC(=O)[C@@H](N)Cc1c[nH]cn1)[C@@H](C)O)C(C)C)C(N)=O [α-Neurokinin] | – | 4.6 | 11.0 ± 1.4 | 0.11 ± 0.03 | – | – | –

From US6969702B2, “Compounds and methods for increasing neurogenesis” (priority 2002, dated 2005)
